Tested on: Uracil-DNA glycosylase (Herpes simplex virus type 1)
Test: Inhibitory potency against HSV-1 UDG( Herpes Simplex virus type-I Uracil DNA glycosylase); 10-15% inhibition was observed at a concentration of 40 uM
Conditions: Human alphaherpesvirus 1

| SMILES | inhibition |
| --- | --- |
| CCCCCCc1ccc(Nc2cc(=O)[nH]c(=O)n2CCC)cc1 | 15% |
| CCCCCCc1ccc(Nc2cc(=O)[nH]c(=O)n2C)cc1 | 15% |
| CCCCCCc1ccc(Nc2cc(=O)[nH]c(=O)n2CC)cc1 | 15% |
